Experimental data from ChEMBL document CHEMBL1201862, “PubChem BioAssay data set” (2004).
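Briefly, cells in 96-well plates were exposed to five compound concentrations for 48 h, and endpoints were estimated by linear interpolation. GI50 marks 50% less growth.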 Active and inactive are the calls of the source. Rule as the data show it: active = GI50 up to about 1.1 µM and inactive = higher.

Experiments:
Assay in all cases: NCI tumour cell line growth inhibition, 48 h
SNB-19 = tested on: SNB-19
HCT-116 = tested on: HCT-116
SK-MEL-28 = tested on: SK-MEL-28
IGROV-1 = tested on: IGROV-1
RXF 393 = tested on: RXF 393
NCI-H460 = tested on: NCI-H460
UO-31 = tested on: UO-31
EKVX = tested on: EKVX
ACHN = tested on: ACHN
MOLT-4 = tested on: MOLT-4
SNB-75 = tested on: SNB-75
UACC-62 = tested on: UACC-62
786-0 = tested on: 786-0
CCRF-CEM = tested on: CCRF-CEM
HOP-62 = tested on: HOP-62
NCI-H23 = tested on: NCI-H23
PC-3 = tested on: PC-3
OVCAR-8 = tested on: OVCAR-8
DU-145 = tested on: DU-145
MDA-MB-231 = tested on: MDA-MB-231

SMILES	GI50 (SNB-19)	GI50 (HCT-116)	GI50 (SK-MEL-28)	GI50 (IGROV-1)	GI50 (RXF 393)	GI50 (NCI-H460)	GI50 (UO-31)	GI50 (EKVX)	GI50 (ACHN)	GI50 (MOLT-4)	GI50 (SNB-75)	GI50 (UACC-62)	GI50 (786-0)	GI50 (CCRF-CEM)	GI50 (HOP-62)	GI50 (NCI-H23)	GI50 (PC-3)	GI50 (OVCAR-8)	GI50 (DU-145)	GI50 (MDA-MB-231)
CC(C)=CC(=O)Cc1nc2cc(C)c(C)cc2[nH]c1=O	> 100 µM (inactive)	> 100 µM (inactive)	> 100 µM (inactive)	> 100 µM (inactive)	64.9 µM (inactive)	> 100 µM (inactive)	75 µM (inactive)	9.89 µM (inactive)	> 100 µM (inactive)	> 100 µM (inactive)	> 100 µM (inactive)	> 100 µM (inactive)	> 100 µM (inactive)	> 100 µM (inactive)	17.9 µM (inactive)	> 100 µM (inactive)				
CC[C@H]1C[C@@H](O)[C@@H]2[C@H](O)[C@H](O)CN2C1	> 100 µM (inactive)	> 100 µM (inactive)	> 100 µM (inactive)	> 100 µM (inactive)		> 100 µM (inactive)		> 100 µM (inactive)	> 100 µM (inactive)	> 100 µM (inactive)	> 100 µM (inactive)		> 100 µM (inactive)	> 100 µM (inactive)			> 100 µM (inactive)	> 100 µM (inactive)	> 100 µM (inactive)	
CCN(CC)CCNc1n[n+]([O-])c2ccccc2[n+]1[O-]	13.5 µM (inactive)	7.73 µM (inactive)	39.4 µM (inactive)	1.81 µM (inactive)	4.65 µM (inactive)		19 µM (inactive)	12.7 µM (inactive)	2.95 µM (inactive)	2.02 µM (inactive)		4.8 µM (inactive)	7.85 µM (inactive)	3.91 µM (inactive)	5.11 µM (inactive)		5.78 µM (inactive)	7.76 µM (inactive)	12.1 µM (inactive)	
CCOC(=O)C(/C(=N/NC(=O)OC)C(=O)Nc1ccc(C(C)=O)cc1)c1cnc2ccccc2n1 (configuration not stated)	> 100 µM (inactive)	> 100 µM (inactive)	> 100 µM (inactive)	> 100 µM (inactive)	> 100 µM (inactive)	> 100 µM (inactive)	> 100 µM (inactive)	> 100 µM (inactive)	> 100 µM (inactive)		90.8 µM (inactive)	> 100 µM (inactive)	> 100 µM (inactive)	> 100 µM (inactive)	> 100 µM (inactive)	> 100 µM (inactive)		> 100 µM (inactive)		
O=C1c2ccccc2-c2cc3ccccc3c(=O)n21	> 100 µM (inactive)	> 100 µM (inactive)	> 100 µM (inactive)	> 100 µM (inactive)		> 100 µM (inactive)	49.1 µM (inactive)	> 100 µM (inactive)	> 100 µM (inactive)		> 100 µM (inactive)	> 100 µM (inactive)	68.5 µM (inactive)	> 100 µM (inactive)		> 100 µM (inactive)	> 100 µM (inactive)	> 100 µM (inactive)	> 100 µM (inactive)	
O=C(OCC1OC(c2nn[nH]n2)C(OC(=O)c2ccccc2)C1OC(=O)c1ccccc1)c1ccccc1 (configuration not stated)	32.7 µM (inactive)	> 100 µM (inactive)			41.9 µM (inactive)	71 µM (inactive)	> 100 µM (inactive)	66.1 µM (inactive)	> 100 µM (inactive)	> 100 µM (inactive)	57 µM (inactive)	53 µM (inactive)	> 100 µM (inactive)	96.6 µM (inactive)	> 100 µM (inactive)	> 100 µM (inactive)	> 100 µM (inactive)	> 100 µM (inactive)	> 100 µM (inactive)	
CC(=O)NNc1nc(C)c(C(/C=C/c2ccc(Cl)cc2)=N/NC(=S)NN)s1	> 100 µM (inactive)	> 100 µM (inactive)	> 100 µM (inactive)	> 100 µM (inactive)	> 100 µM (inactive)	> 100 µM (inactive)	> 100 µM (inactive)	> 100 µM (inactive)	> 100 µM (inactive)	> 100 µM (inactive)	> 100 µM (inactive)	> 100 µM (inactive)	> 100 µM (inactive)	> 100 µM (inactive)	> 100 µM (inactive)	> 100 µM (inactive)		> 100 µM (inactive)		
Cc1ccc2nc(-c3ccc(N)c(I)c3)sc2c1	19 µM (inactive)	54.6 µM (inactive)	> 100 µM (inactive)		24 µM (inactive)	18.2 µM (inactive)	7.06 µM (inactive)	29 µM (inactive)	20.8 µM (inactive)	10.4 µM (inactive)	41.5 µM (inactive)	32.5 µM (inactive)	15.8 µM (inactive)	6.21 µM (inactive)	28.8 µM (inactive)		8.49 µM (inactive)	67.5 µM (inactive)		14.3 µM (inactive)
CN(C)/N=N/c1ccc(C(N)=O)cc1	> 100 µM (inactive)	> 100 µM (inactive)	> 100 µM (inactive)	> 100 µM (inactive)	> 100 µM (inactive)	> 100 µM (inactive)	> 100 µM (inactive)	> 100 µM (inactive)	> 100 µM (inactive)	> 100 µM (inactive)	97.7 µM (inactive)	> 100 µM (inactive)	> 100 µM (inactive)	> 100 µM (inactive)	> 100 µM (inactive)	> 100 µM (inactive)		> 100 µM (inactive)		
COc1cc(C(=O)Nc2cccc3ccccc23)c(Br)c(OC)c1OC	> 100 µM (inactive)	67.9 µM (inactive)	89.9 µM (inactive)	81.8 µM (inactive)	42.7 µM (inactive)	64.9 µM (inactive)	31.4 µM (inactive)	> 100 µM (inactive)	81.7 µM (inactive)	39.7 µM (inactive)	62.2 µM (inactive)	45.2 µM (inactive)	1.38 µM (inactive)	33.9 µM (inactive)	> 100 µM (inactive)	82 µM (inactive)		0.0416 µM (active)		
COC(=O)/C(=N\NC(N)=S)C(C(=O)OC)C(=O)C(=O)Nc1ccc(C)cc1 (configuration not stated)	> 100 µM (inactive)	> 100 µM (inactive)	> 100 µM (inactive)	> 100 µM (inactive)	> 100 µM (inactive)	> 100 µM (inactive)	> 100 µM (inactive)	> 100 µM (inactive)	> 100 µM (inactive)	> 100 µM (inactive)	41.9 µM (inactive)	> 100 µM (inactive)	> 100 µM (inactive)	> 100 µM (inactive)	> 100 µM (inactive)	> 100 µM (inactive)		> 100 µM (inactive)		
Clc1nc(Cl)c(Cl)c(-c2ccccc2)n1	15.6 µM (inactive)		16 µM (inactive)	15.4 µM (inactive)	13.6 µM (inactive)	9.46 µM (inactive)	18.1 µM (inactive)	16.6 µM (inactive)	17.4 µM (inactive)	1.58 µM (inactive)	2.26 µM (inactive)		2.21 µM (inactive)	0.74 µM (active)	4.03 µM (inactive)	15.8 µM (inactive)	10.5 µM (inactive)	10.4 µM (inactive)		
CC[C@H](C)[C@H](NC(=O)[C@H](Cc1ccc(O)cc1)NCC(F)(F)F)C(=O)OC(C)(C)C	7.96 µM (inactive)	7.18 µM (inactive)	9.38 µM (inactive)	7.5 µM (inactive)	7.16 µM (inactive)	6.22 µM (inactive)	7.64 µM (inactive)	6.87 µM (inactive)	7.33 µM (inactive)	6.35 µM (inactive)	7.89 µM (inactive)	5.69 µM (inactive)	8.15 µM (inactive)		9.25 µM (inactive)	8.59 µM (inactive)	6.43 µM (inactive)	12.4 µM (inactive)		7.28 µM (inactive)
N#C/C(=C\c1cc(Cl)cc(Cl)c1)c1ccccn1	> 100 µM (inactive)	34.3 µM (inactive)	8.63 µM (inactive)	12.4 µM (inactive)	5.11 µM (inactive)	7.83 µM (inactive)	43.8 µM (inactive)	3.46 µM (inactive)	64.1 µM (inactive)	5.14 µM (inactive)	5.55 µM (inactive)	12 µM (inactive)	21.5 µM (inactive)	3.63 µM (inactive)	20 µM (inactive)	6.35 µM (inactive)	11.3 µM (inactive)	18 µM (inactive)	70.6 µM (inactive)	
OCCCCn1cnc2c(O)ncnc21	> 100 µM (inactive)	> 100 µM (inactive)	> 100 µM (inactive)	> 100 µM (inactive)	> 100 µM (inactive)	> 100 µM (inactive)	> 100 µM (inactive)	> 100 µM (inactive)	> 100 µM (inactive)	> 100 µM (inactive)	> 100 µM (inactive)	> 100 µM (inactive)	> 100 µM (inactive)	> 100 µM (inactive)	> 100 µM (inactive)	> 100 µM (inactive)		> 100 µM (inactive)		
COc1ccc([C@@H]2CC(=O)N2)cc1	> 100 µM (inactive)	> 100 µM (inactive)	> 100 µM (inactive)	> 100 µM (inactive)	> 100 µM (inactive)	> 100 µM (inactive)	> 100 µM (inactive)	> 100 µM (inactive)	> 100 µM (inactive)	> 100 µM (inactive)	> 100 µM (inactive)	> 100 µM (inactive)	> 100 µM (inactive)	> 100 µM (inactive)	> 100 µM (inactive)	> 100 µM (inactive)		> 100 µM (inactive)		
